Publication PMC7313537 (PLoS ONE, 2020)

Columns and labels:
[1] = test system: OPM-2 (myeloma); experiment: Cell viability assay (CellTiter-Glo); format: cell-based; details: Homo sapiens, IgH-FGFR3 translocation, 72 hours, read-out: Mean GI50 ± S.D.
[2] = test system: FGFR3 phosphorylation in RT-4 cells; experiment: Proximity ligation assay; format: cell-based; details: 100 nM, 1 hour
Description: S4 Figure. FGFR3 Phosphorylation Detected by Proximity Ligation Assay. […] Primary antibodies were rabbit anti-FGFR3 (Abcam, Cambridge, UK, #137084) at a 1:250 dilution and mouse 4G10 platinum anti-phosphotyrosine monoclonal cocktail IgG2b (Millipore, Burlington, MA, #05-1050) at a 1:250 dilution. Secondary probes were Duolink In Situ PLA® Probe Anti-Rabbit PLUS, affinity purified donkey anti-rabbit IgG (H+L) and Duolink In Situ PLA® Probe Anti-Mouse MINUS, Affinity purified donkey anti-mouse IgG (H+L). Detection was via Duolink In Situ Detection Reagents Red.

[3] = molecular target: LRRK2 (Homo sapiens, UniProt Q5S007); experiment: Enzyme selectivity panel; format: biochemical; details: 1 mM ATP
Description: (§3) The kinase assays were carried out at room temperature in HEPES 50 mM, pH 7.0, NaN3 0.02%, BSA 0.01%, Orthovanadate 0.1 mM, DTT 1 mM, MgCl2 10 mM in a final volume of 10 µL. Test compounds were transferred to the plate wells by ECHO liquid handler (Labcyte, San Jose, CA) with 0.5% dimethyl sulfoxide (DMSO) in the final assay. Peptide/kinase mixtures were diluted in the appropriate enzymatic buffer and 5µL of the mixture was added to a 384-well small volume black plate. Reactions were initiated by the addition of 5 µL ATP in reaction buffer, the final reaction mixture consisted of 500 nM peptide substrate, 1 mM ATP, and appropriate amount of specific kinase. […] The plates were then sealed and centrifuged at 1800 rpm for 2 minutes. […] Half maximal inhibitory concentration (IC50) determination was performed by fitting the curve of percent control activity versus the log of the compound concentration using the GraphPad Prism 6.0 software.

[4] = molecular target: CDK2 (Homo sapiens, UniProt P24941); experiment: Enzyme selectivity panel; format: biochemical; details: 1 mM ATP
Description: as §3

[5] = molecular target: IKKB (Homo sapiens, UniProt O14920); experiment: Enzyme selectivity panel; format: biochemical; details: 1 mM ATP
Description: as §3

[6] = molecular target: HIPK3 (Homo sapiens, UniProt Q9H422); experiment: Enzyme selectivity panel; format: biochemical; details: 1 mM ATP
Description: as §3

[7] = Caco-2 permeability; format: in vitro ADME; details: human, Caco-2; A–B at 50 μM
Description: (§1) The Caco-2 monolayers were incubated at 37°C, with ambient humidity, and CO2 for the duration of the transport assay. […] The apical volume was 0.2 mL and the basolateral volume was 0.6 mL. The incubation period was 120 minutes. At the end of the incubation period, 0.1 mL of sample was removed from the receiver side and an equal volume of acetonitrile was added for protein precipitation. After centrifugation, the supernatants were collected for analysis. Nadolol and metoprolol were included as low and high permeability comparators, respectively. Trans-epithelial electrical resistance was measured to ensure the integrity of the cell monolayers. Caco-2 cell monolayers with trans-epithelial electrical resistance values ≥300 Ω•cm2 were used for transport experiments.

[8] = test system: Caco-2 cell monolayers; experiment: Caco-2 permeability; format: in vitro ADME; details: A–B at 50 μM
Description: as §1

[9] = test system: A549; experiment: Cell viability assay (CellTiter-Glo); format: cell-based; details: Homo sapiens, Lung cancer, lacking FGFR alterations
[10] = molecular target: PRKAA1 (Homo sapiens, UniProt Q13131); experiment: Enzyme selectivity panel; format: biochemical; details: 1 mM ATP
Description: as §3

[11] = molecular target: EPHA2 (Homo sapiens, UniProt P29317); experiment: Enzyme selectivity panel; format: biochemical; details: 1 mM ATP
Description: as §3

[12] = molecular target: T1, INSR (Homo sapiens, UniProt P06213); experiment: Broader kinase panel (PerkinElmer); format: biochemical; details: 100 nM; read-out: Average Percent Inhibition
T1 construct: purchased In-house HTRF panel (56 kinases) and PerkinElmer (161-kinase panel)
Description: (§2) […]. […] […].

[13] = molecular target: AKT1 (Homo sapiens, UniProt P31749); experiment: Broader kinase panel (PerkinElmer); format: biochemical; details: 100 nM; read-out: Average Percent Inhibition
Description: as §2

[14] = molecular target: T2, ABL (Homo sapiens, UniProt P00519); experiment: Broader kinase panel (PerkinElmer); format: biochemical; details: 100 nM; read-out: Average Percent Inhibition
T2 construct: purchased In-house HTRF panel (56 kinases) and PerkinElmer (161-kinase panel)
Description: as §2

[15] = molecular target: T3, LTK (Homo sapiens, UniProt P29376); experiment: Broader kinase panel (PerkinElmer); format: biochemical; details: 100 nM; read-out: Average Percent Inhibition
T3 construct: purchased In-house HTRF panel (56 kinases) and PerkinElmer (161-kinase panel)
Description: as §2

[16] = molecular target: T4, EGFR (ErbB1) T790M L858R (Homo sapiens, UniProt P00533, L858R/T790M); experiment: Broader kinase panel (PerkinElmer); format: biochemical; details: 100 nM; read-out: Average Percent Inhibition
T4 construct: purchased In-house HTRF panel (56 kinases) and PerkinElmer (161-kinase panel)
Description: as §2

[17] = molecular target: T5, Ca MKII_gamma (Homo sapiens, UniProt Q13555); experiment: Broader kinase panel (PerkinElmer); format: biochemical; details: 100 nM; read-out: Average Percent Inhibition
T5 construct: purchased In-house HTRF panel (56 kinases) and PerkinElmer (161-kinase panel)
Description: as §2

[18] = molecular target: T6, PKCz (Homo sapiens, UniProt Q05513); experiment: Broader kinase panel (PerkinElmer); format: biochemical; details: 100 nM; read-out: Average Percent Inhibition
T6 construct: purchased In-house HTRF panel (56 kinases) and PerkinElmer (161-kinase panel)
Description: as §2

[19] = molecular target: T7, SRC (Homo sapiens, UniProt P12931); experiment: Broader kinase panel (PerkinElmer); format: biochemical; details: 100 nM; read-out: Average Percent Inhibition
T7 construct: purchased In-house HTRF panel (56 kinases) and PerkinElmer (161-kinase panel)
Description: as §2

[20] = molecular target: T8, MARK2 (Homo sapiens, UniProt Q7KZI7); experiment: Broader kinase panel (PerkinElmer); format: biochemical; details: 100 nM; read-out: Average Percent Inhibition
T8 construct: purchased In-house HTRF panel (56 kinases) and PerkinElmer (161-kinase panel)
Description: as §2

[21] = molecular target: T9, PIM3 (Homo sapiens, UniProt Q86V86); experiment: Broader kinase panel (PerkinElmer); format: biochemical; details: 100 nM; read-out: Average Percent Inhibition
T9 construct: purchased In-house HTRF panel (56 kinases) and PerkinElmer (161-kinase panel)
Description: as §2

[22] = molecular target: T10, NEK1 (Homo sapiens, UniProt Q96PY6); experiment: Broader kinase panel (PerkinElmer); format: biochemical; details: 100 nM; read-out: Average Percent Inhibition
T10 construct: purchased In-house HTRF panel (56 kinases) and PerkinElmer (161-kinase panel)
Description: as §2

[23] = molecular target: LCK (Homo sapiens, UniProt P06239); experiment: Broader kinase panel (PerkinElmer); format: biochemical; details: 100 nM; read-out: Average Percent Inhibition
Description: as §2

[24] = molecular target: T11, Ca MK2a (Homo sapiens, UniProt Q9UQM7); experiment: Broader kinase panel (PerkinElmer); format: biochemical; details: 100 nM; read-out: Average Percent Inhibition
T11 construct: purchased In-house HTRF panel (56 kinases) and PerkinElmer (161-kinase panel)
Description: as §2

[25] = molecular target: T12, Mer (Homo sapiens, UniProt Q12866); experiment: Broader kinase panel (PerkinElmer); format: biochemical; details: 100 nM; read-out: Average Percent Inhibition
T12 construct: purchased In-house HTRF panel (56 kinases) and PerkinElmer (161-kinase panel)
Description: as §2

[26] = molecular target: T13, PKC-eta (Homo sapiens, UniProt P24723); experiment: Broader kinase panel (PerkinElmer); format: biochemical; details: 100 nM; read-out: Average Percent Inhibition
T13 construct: purchased In-house HTRF panel (56 kinases) and PerkinElmer (161-kinase panel)
Description: as §2

[27] = cited from earlier work
[28] = molecular target: PLK3 (Homo sapiens, UniProt Q9H4B4); experiment: Enzyme selectivity panel; format: biochemical; details: 1 mM ATP
Description: as §3

[29] = molecular target: JNK1 (Homo sapiens, UniProt P45983); experiment: Enzyme selectivity panel; format: biochemical; details: 1 mM ATP
Description: as §3

[30] = molecular target: AURKA (Homo sapiens, UniProt O14965); experiment: Enzyme selectivity panel; format: biochemical; details: 1 mM ATP
Description: as §3

[31] = molecular target: T14, AXL (Homo sapiens, UniProt P30530); experiment: Enzyme selectivity panel; format: biochemical; details: 1 mM ATP
T14 construct: purchased In-house HTRF panel (56 kinases) and PerkinElmer (161-kinase panel)
Description: as §3

[32] = test system: TF1-BCR-ABL; experiment: Cell viability assay (CellTiter-Glo); format: cell-based; details: AML/recombinant; lacking FGFR alterations
[33] = molecular target: T15, hERG potassium current (Homo sapiens, UniProt Q12809); experiment: hERG potassium current (ChanTest); format: cell-based; details: estimated; precise IC50 not calculated due to compound insolubility; data provided by ChanTest; read-out: IC50 for the inhibitory effect on hERG potassium current
T15 construct: ChanTest Corporation, Cleveland, OH

[34] = molecular target: T16, GSK3B (Homo sapiens, UniProt P49841); experiment: Enzyme selectivity panel; format: biochemical; details: 1 mM ATP
T16 construct: purchased In-house HTRF panel (56 kinases) and PerkinElmer (161-kinase panel)
Description: as §3

[35] = test system: KMS-11 (myeloma); experiment: Cell viability assay (CellTiter-Glo); format: cell-based; details: Homo sapiens, IgH-FGFR3 translocation, 72 hours, read-out: Mean GI50 ± S.D.

T14 sequence (P30530 26-894, species assumed): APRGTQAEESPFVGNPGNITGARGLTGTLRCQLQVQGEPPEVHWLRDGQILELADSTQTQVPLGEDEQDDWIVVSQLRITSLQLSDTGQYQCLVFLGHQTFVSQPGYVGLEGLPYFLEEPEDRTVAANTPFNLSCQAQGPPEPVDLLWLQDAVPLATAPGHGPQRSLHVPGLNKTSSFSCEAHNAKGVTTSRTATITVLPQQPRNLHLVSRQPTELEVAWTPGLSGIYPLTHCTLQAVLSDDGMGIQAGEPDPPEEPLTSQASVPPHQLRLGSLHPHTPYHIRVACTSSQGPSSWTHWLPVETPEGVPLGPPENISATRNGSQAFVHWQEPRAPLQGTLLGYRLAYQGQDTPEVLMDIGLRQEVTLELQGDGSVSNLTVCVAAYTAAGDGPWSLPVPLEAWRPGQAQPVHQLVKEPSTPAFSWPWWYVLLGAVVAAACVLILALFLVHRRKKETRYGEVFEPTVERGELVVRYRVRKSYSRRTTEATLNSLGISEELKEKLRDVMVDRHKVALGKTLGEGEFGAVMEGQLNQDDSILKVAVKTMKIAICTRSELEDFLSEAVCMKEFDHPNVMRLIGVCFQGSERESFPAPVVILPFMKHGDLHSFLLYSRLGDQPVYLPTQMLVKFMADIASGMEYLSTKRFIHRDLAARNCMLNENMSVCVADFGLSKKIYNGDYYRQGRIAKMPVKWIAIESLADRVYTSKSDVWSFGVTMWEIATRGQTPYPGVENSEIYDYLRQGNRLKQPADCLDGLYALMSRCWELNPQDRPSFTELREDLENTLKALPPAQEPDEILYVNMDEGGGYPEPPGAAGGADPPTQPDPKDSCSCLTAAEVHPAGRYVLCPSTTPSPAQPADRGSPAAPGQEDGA
Chain of JNK1 (P45983 whole entry, species assumed): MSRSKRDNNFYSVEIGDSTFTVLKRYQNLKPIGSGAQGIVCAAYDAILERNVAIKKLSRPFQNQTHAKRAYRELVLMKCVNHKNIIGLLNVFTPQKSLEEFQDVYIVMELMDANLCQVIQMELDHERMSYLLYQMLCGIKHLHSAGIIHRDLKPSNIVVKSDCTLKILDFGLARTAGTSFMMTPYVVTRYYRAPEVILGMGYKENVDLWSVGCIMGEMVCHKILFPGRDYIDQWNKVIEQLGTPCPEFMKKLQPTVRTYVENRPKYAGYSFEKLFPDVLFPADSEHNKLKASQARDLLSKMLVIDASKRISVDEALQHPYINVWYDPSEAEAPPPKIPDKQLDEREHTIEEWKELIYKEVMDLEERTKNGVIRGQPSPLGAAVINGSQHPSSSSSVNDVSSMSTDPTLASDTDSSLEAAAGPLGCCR
T12 sequence (Q12866 21-999): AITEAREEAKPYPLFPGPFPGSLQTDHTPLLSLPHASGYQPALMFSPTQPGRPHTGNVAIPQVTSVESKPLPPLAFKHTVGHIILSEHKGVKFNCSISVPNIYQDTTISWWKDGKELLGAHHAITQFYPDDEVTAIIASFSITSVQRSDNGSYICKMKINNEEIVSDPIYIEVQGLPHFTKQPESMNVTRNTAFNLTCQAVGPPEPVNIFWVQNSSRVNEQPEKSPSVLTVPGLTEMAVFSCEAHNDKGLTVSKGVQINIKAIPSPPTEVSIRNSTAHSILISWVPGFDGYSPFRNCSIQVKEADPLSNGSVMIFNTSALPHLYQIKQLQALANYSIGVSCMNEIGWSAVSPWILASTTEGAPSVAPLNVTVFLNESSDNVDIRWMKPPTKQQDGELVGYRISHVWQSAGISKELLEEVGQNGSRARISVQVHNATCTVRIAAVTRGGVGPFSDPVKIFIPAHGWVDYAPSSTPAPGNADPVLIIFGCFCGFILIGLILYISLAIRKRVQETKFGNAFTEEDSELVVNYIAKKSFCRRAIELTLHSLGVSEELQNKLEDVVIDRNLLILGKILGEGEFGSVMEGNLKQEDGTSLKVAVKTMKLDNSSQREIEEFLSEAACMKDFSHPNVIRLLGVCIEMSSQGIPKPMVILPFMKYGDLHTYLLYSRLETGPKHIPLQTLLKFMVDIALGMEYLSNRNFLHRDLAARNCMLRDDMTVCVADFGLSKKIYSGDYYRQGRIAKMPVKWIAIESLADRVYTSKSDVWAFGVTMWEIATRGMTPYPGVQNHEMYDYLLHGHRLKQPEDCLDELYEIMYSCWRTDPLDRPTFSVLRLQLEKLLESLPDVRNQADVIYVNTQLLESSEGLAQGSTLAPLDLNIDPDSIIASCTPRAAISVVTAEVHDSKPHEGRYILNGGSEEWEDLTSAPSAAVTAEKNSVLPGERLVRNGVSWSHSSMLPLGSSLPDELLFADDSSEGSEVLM
Chain of PLK3 (Q9H4B4 whole entry, species assumed): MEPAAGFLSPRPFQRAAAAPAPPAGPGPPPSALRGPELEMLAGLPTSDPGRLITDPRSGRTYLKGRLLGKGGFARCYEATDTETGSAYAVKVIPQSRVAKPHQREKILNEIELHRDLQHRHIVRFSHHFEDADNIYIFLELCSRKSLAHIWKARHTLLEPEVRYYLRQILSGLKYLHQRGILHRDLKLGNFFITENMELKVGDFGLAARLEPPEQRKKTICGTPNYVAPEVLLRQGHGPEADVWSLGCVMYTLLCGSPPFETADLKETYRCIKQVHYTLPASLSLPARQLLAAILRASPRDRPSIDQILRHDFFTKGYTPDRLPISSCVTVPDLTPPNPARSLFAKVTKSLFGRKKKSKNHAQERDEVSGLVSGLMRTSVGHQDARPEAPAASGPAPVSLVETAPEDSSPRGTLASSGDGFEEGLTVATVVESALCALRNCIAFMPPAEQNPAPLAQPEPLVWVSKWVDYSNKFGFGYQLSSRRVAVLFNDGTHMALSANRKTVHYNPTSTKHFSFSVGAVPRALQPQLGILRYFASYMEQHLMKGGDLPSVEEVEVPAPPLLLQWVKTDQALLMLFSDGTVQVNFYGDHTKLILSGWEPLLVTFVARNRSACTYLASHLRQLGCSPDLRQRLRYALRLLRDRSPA
Chain of IKKB (O14920 whole entry, species assumed): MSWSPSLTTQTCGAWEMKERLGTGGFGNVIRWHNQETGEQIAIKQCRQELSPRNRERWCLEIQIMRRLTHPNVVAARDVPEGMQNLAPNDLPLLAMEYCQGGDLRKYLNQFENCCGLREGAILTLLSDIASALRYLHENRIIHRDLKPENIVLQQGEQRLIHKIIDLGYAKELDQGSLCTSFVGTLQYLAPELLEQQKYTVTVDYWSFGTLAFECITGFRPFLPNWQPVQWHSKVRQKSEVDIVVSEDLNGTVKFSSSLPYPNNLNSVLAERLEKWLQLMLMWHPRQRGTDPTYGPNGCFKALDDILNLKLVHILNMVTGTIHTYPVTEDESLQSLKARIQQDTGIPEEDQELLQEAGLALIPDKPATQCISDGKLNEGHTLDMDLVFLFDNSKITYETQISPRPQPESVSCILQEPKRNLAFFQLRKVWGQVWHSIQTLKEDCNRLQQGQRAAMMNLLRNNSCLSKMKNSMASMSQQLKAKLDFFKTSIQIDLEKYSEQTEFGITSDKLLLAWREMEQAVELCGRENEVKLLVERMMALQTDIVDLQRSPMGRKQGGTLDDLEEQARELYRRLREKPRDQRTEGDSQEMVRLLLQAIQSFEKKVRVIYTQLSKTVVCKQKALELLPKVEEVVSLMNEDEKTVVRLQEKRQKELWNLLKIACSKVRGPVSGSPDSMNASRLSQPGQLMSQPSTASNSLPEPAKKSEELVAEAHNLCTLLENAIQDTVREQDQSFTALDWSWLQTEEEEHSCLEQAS
T1 sequence (P06213 28-1382): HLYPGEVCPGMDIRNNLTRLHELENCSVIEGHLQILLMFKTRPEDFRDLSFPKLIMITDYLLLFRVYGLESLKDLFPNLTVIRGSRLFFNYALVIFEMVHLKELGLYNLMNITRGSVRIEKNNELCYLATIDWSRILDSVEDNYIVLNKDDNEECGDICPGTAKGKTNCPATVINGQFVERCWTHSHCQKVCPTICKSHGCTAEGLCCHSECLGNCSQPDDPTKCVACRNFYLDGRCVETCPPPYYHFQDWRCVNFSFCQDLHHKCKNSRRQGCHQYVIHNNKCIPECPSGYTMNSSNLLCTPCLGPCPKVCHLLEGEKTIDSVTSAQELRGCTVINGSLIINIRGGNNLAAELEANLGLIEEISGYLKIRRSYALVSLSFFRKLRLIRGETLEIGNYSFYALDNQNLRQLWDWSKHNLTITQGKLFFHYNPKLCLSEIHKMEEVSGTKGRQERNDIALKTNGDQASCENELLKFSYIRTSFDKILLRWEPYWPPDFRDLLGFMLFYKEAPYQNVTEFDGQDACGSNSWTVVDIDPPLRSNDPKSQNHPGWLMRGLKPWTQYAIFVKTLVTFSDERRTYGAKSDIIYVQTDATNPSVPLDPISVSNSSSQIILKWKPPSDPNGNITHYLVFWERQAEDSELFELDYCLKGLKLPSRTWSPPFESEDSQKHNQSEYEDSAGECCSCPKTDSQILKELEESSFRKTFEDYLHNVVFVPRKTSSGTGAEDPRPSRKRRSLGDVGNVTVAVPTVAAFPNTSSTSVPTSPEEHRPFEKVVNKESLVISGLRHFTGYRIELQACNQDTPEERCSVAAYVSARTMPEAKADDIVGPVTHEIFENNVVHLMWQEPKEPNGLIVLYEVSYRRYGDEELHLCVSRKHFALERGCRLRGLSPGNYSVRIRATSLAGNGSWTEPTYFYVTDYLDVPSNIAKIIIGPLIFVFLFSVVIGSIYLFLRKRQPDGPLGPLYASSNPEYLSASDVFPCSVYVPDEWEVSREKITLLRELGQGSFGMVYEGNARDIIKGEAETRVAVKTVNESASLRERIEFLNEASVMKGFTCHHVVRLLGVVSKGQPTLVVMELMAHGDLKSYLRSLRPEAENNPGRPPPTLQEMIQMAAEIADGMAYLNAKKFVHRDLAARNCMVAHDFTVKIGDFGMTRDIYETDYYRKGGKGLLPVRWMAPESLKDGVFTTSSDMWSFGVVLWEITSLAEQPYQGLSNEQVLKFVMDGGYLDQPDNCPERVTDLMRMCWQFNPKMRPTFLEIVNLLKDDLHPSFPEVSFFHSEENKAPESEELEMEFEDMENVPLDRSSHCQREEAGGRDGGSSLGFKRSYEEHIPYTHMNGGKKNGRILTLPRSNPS

## CCN1C(=O)N(c2c(F)c(OC)cc(OC)c2F)Cc2cnc3[nH]c(CN4CCOCC4)cc3c21 [INCB054828, pemigatinib]
[1]
  GI50: 0.018 ± 0.009 µM
[2]
  FGFR3 phosphorylation: a decrease was detected
[3]
  IC50: > 10 µM
[4]
  IC50: > 10 µM
[5]
  IC50: > 10 µM
[6]
  IC50: > 10 µM
[7]
  Papp at 120 min, 50 μM: 11 ×10⁻⁶ cm/s
[8]
  Caco-2 Papp: moderate to high permeability
[9]
  GI50: > 5 µM
[10]
  IC50: > 10 µM
[11]
  IC50: > 10 µM
[12]
  inhibition at 0.1 µM: 1%
[13]
  inhibition at 0.1 µM: 2%
[14]
  inhibition at 0.1 µM: -4%
[15]
  inhibition at 0.1 µM: -17%
[16]
  inhibition at 0.1 µM: 5%
[17]
  inhibition at 0.1 µM: -9%
[18]
  inhibition at 0.1 µM: 1%
[19]
  inhibition at 0.1 µM: 1%
[20]
  inhibition at 0.1 µM: 5%
[21]
  inhibition at 0.1 µM: -4%
[22]
  inhibition at 0.1 µM: 1%
[23]
  inhibition at 0.1 µM: -2%
[24]
  inhibition at 0.1 µM: 2%
[25]
  inhibition at 0.1 µM: -1%
[26]
  inhibition at 0.1 µM: -4%
[27]
  safety profile in phase 1 clinical trials: favorable safety profile
[27]; phase 1 dose-escalation study ref 33
  pharmacokinetic data in patients: low clearance and dose-linearity
[28]
  IC50: > 10 µM
[29]
  IC50: > 10 µM
[30]
  IC50: > 10 µM
[31]
  IC50: > 10 µM
[32]
  GI50: > 5 µM
[33]
  IC50: > 8 µM
[34]
  IC50: > 10 µM
[35]
  GI50: 0.362 ± 0.282 µM
